Assay results: patent US11510949B2, “Use of the treatment or improvement of sleep disorders by Lactobacillus brevis ProGA28 and/or its metabolites” (SYNGEN BIOTECH CO., LTD, priority 2019, dated 2022)

Tested on: SHR rats
Test: Sleep quality and quantity assessment in SHR rats after tube feeding (EEG/EMG sleep staging)
Assay type: in vivo
[1] = pure substance administered, FIG. 5

Method: The dosage of the test products used in the following examples is based on the daily human consumption of 8.3 mg/kg, and then according to the body surface area model coefficient of 6.2 to calculate the standard feeding dosage for rats being 52 mg/kg which is set as 1.0× dose given in the following examples.
The “sleep stage” called in the following examples includes the following three stages: awake (AW); quiet sleep (QS) which is equivalent to human non-rapid eye movement sleep (NREM) and paradoxical sleep (PS) which is equivalent to human rapid eye movement sleep (REM).
Frequency domain analysis of brain waves and myoelectric waves: each 16 seconds (1024 points) of brain wave signal acquisition is called a time window (or epoch), and is compared with 8 seconds before the next time window (50%) overlap for analysis. The fast Fourier transform is used to estimate the power spectral density and evaluate the activity of brain waves in different frequency bands. […]
Each test product was dissolved in drinking water and administered by tube feeding, the administration time was 1 hour before the light, and the physiological information of each group of rats was recorded at the beginning of the light, as a basis for sleep assessment.
In addition, pure gamma-aminobutyric acid was also administered to the SHR rats, and as described above, the physiological information of SHR rats was detected and recorded as a basis for sleep assessment.
The quality and quantity of sleep in the 24 hours after each test product was fed which was used as the range of sleep assessment:
The quantity of sleep: including the total time of sleep and wakefulness, the number of falling asleep and the average time of each sleep stage (duration) etc., and evaluate the quantity of sleep for each sleep stage; and the sleep of the group fed water is defined as 100%, used for comparing with the other groups fed test products to show the difference in each sleep stage.

SMILES: NCCCC(=O)O [pure y-aminobutyric acid, γ-aminobutyric acid]
- quality and quantity of sleep (overall comparison of the figures, dose not specified): not helpful for the improvement
- sleep quality of rats [1]: not helpful to increase the sleep quality
- sleep time [1]: can not increase sleep time
